The values that follow come from patent US20150291547A1, “SMALL MOLECULES FOR EXTENDING THE WELL BEING OF CELLS AND METHODS OF USE THEREOF” (NANYANG POLYTECHNIC, priority 2011, published 2015).

Assay [1] relates to hTERT expression (hTERT promoter). Briefly: HepG2-phTERT-SEAP reporter assay (SEAP activity as measure of hTERT expression). Particulars: for increase in hTERT expression: 16 hours; for average increase in hTERT expression: 20 μg/ml, 16 hours incubation, HepG2-hTERT reporter cell line, n=5 (FIG. 1). It is filed as cell-based, human. On the procedure: NPL which consists of a total of 480 different pure natural product compounds.
(§1) “SEAP” stands for secreted alkaline phosphatase enzyme. SEAP was used as a reporter system to monitor the transcriptional activity of hTERT. Here, about 10,000 cells per well were grown in 96-well plates and incubated at 37° C. for 22 hours. Varying types and amounts of natural compounds were added and cells were incubated for another 16 hours. Culture media were collected and heated at 65° C. for 10 mins to inactivate heat labile phosphatases. An equal amount of SEAP buffer (2M diethanolamine, 1 mM MgCl2, and 20 mM L-homoarginine), was added to the media and p-nitrophenyl phosphate was added to a final concentration of 12 mM. Absorbance at 405 nm was taken, and the percentage change in absorbance was calculated.
An increase in SEAP activity detected via the utilization of a substrate, translates to an increase in hTERT expression.
Cell lines suitable for use in the assay were prepared from ATTC No. HB-8065 Hep G2 (Hepatocellular carcinoma, human). The Hep G2 cell line was isolated from a liver biopsy of a person with a well differentiated hepatocellular carcinoma. These cells are epithelial in morphology. These cells secrete a variety of major plasma proteins e.g., alpha-fetoprotein (alpha fetoprotein); albumin; alpha2 macroglobulin (alpha-2-macroglobulin); alpha1 antitrypsin (alpha-1-antitrypsin); transferrin; alpha1 antichymotrypsin; (alpha-1-antichymotrypsin); haptoglobin; ceruloplasmin; plasminogen; complement (C4); C3 activator; fibrinogen; alpha1 acid glycoprotein (alpha-1 acid glycoprotein); alpha2 HS glycoprotein (alpha-2-HS-glycoprotein); beta lipoprotein (beta-lipoprotein); retinol binding protein (retinol-binding protein). The cells are also responsive to stimulation with human growth hormone. HepG2 cells and its derivatives are commonly used as a model system for studies of liver metabolism and toxicity of xenobiotics, the detection of cytoprotective, anti (environmental and dietary) genotoxic and cogenotoxic agents, understanding hepatocarcinogenesis, and for drug targeting studies. HepG2 cells are also employed in trials with bio-artificial liver devices.
(§2) One of the plasmids contains the 5′ upstream hTERT promoter region followed by the reporter gene, the SEAP gene, while the other plasmid contains the CMV promoter region controlling the expression of the SEAP gene.
(§3) Each plasmid was then individually transfected into HepG2 cells and stable cells lines were established by selection on G418 (1 mg/ml). Stable clones of from each plasmid transfected cell line was established and each clone was propagated and preserved under liquid nitrogen for long term storage prior to use
(§4) The newly established HepG2-pTERT-SEAP and HepG2-pCMV-SEAP stable cell lines were then used for screening for inhibitors or activators of human telomerase expression.
An increase in SEAP activity indicates an increase in hTERT expression and a decrease in SEAP activity indicates a decrease in hTERT expression.
HepG2-phTERT-SEAP cells were grown for 22 hours in M199 medium supplemented with 10% FBS. The three compounds, 7E (P1), 8H(P1) and 11E(P2) (20 μg/ml) specified above were added and incubated for another 16 hours. After 16 hours, SEAP assay was conducted in accordance to the protocol described by Huang et al. (2003).
For orientation: Reporter assays use an easily measured gene product as a stand-in for the process of interest.

In assay [2] the test system is hTERT promoter relative to CMV promoter. In words: Specificity check: hTERT promoter relative to CMV promoter driven SEAP in HepG2 cells. It is filed as cell-based, human. The conditions noted are these: for Average phTERT/pCMV ratio: 20 μg/ml, 16 hours, ± SE, n = 3; for specificity in activating hTERT expression: judged from average phTERT/pCMV ratio. On the procedure:
as §1, §2, §3, §4
HepG2-pCMV-SEAP serves as a positive control to ensure that SEAP is always secreted by cells harbouring this plasmid. It also serves as a specificity control as any small molecules that stimulate or inhibit only telomerase expression identified using the HepG2-pTERT-SEAP cells screening should show little to no increase in SEAP activity.
HepG2-phTERT-SEAP cells were grown for 22 hours in M199 medium supplemented with 10% FBS. The three compounds (20 μg/ml) specified above were then added and incubated for another 16 hours. After 16 hours, SEAP assay was conducted in accordance to the protocol described by Huang et al. (2003). Concurrently, HepG2-pCMV-SEAP cells were also subjected to the compounds and results were also collected. The results obtained were as shown in Table 1 below which indicate the change in hTERT expression from n=3 independent experiments.

Setting [3] is: 1.25ug/ml, above untreated cells.
Setting [4] is: 20 ug/ml, vs 1% DMSO control wells.
Setting [5] is: 100 ug/ml, vs 1% DMSO control wells.

Turning to `O=c1cc(-c2ccc(O)c(O)c2)oc2cc(O[C@@H]3O[C@H](CO)[C@@H](O)[C@H](O)[C@H]3O)cc(O)c12` [7E, Plate 1, 2-(3,4-dihydroxyphenyl)-5-hydroxy-7-[3,4,5-trihydroxy-6-(hydroxymethyl)(2H-3,4,5,6-tetrahydropyran-2-yloxy)]chromen-4-one], the “increase in hTERT expression” value in assay [1] (setting [3]) stood at 12.3%; in assay [1] (setting [4]), 34.7%; in assay [1] (setting [5]), 167.0%. For the same compound, in assay [1], the “average increase in hTERT expression” value was determined as 29.42%. The “Average phTERT/pCMV ratio” value in assay [2] is reported as 1.08 ± 0.04. In addition, the “specificity in activating hTERT expression” value (shortened to “specificity”) in assay [2] was “only mildly specific”.
On to `COc1cc2ccc(=O)oc2c(O)c1OCC=C(C)C` [8H, Plate 1, 8-hydroxy-6-methoxy-7-(3-methylbut-2-enyloxy) chromen-2-one], for which the figures for the “increase in hTERT expression” value in assay [1] (setting [3]), in assay [1] (setting [4]) and in assay [1] (setting [5]) were 8.1%, 39.5% and 139.5%, respectively. The “average increase in hTERT expression” value in assay [1] worked out at 49.76%. Besides, the “Average phTERT/pCMV ratio” value in assay [2] came out at 2.16 ± 0.14. The “specificity” value in assay [2] is reported as “highly specific”.
For `COc1cc2ccc(=O)oc2cc1O` [11E, Plate 2, 7-hydroxy-6-methoxychromen-2-one], the figures for the “increase in hTERT expression” value in assay [1] (setting [3]), in assay [1] (setting [4]) and in assay [1] (setting [5]) were 4.3%, 54.2% and 225.8%, respectively. In assay [1], the “average increase in hTERT expression” value is 57.99%. For the same compound, the “Average phTERT/pCMV ratio” value in assay [2] came out at 2.01 ± 0.01. Also, the “specificity” value in assay [2] was “highly specific”.
In the case of `Cc1ccc(C(=O)Nc2ccc(S(=O)(=O)O)c3cc(S(=O)(=O)O)cc(S(=O)(=O)O)c23)cc1NC(=O)c1cccc(NC(=O)Nc2cccc(C(=O)Nc3cc(C(=O)Nc4ccc(S(=O)(=O)O)c5cc(S(=O)(=O)O)cc(S(=O)(=O)O)c45)ccc3C)c2)c1` [Suramin, reference compound], the “Average phTERT/pCMV ratio” value in assay [2] came to 1.16 ± 0.11.
